One compound from patent US8987228B2, “Pharmaceutical composition including an A3 adenosine receptor agonist 1-deooxy-1-[N6-(3-idobenzyl)-adenin-9-yl]-N-methyl-β-D-ribofuronamide(IB-MECA/CF-101) for treatment of psoriasis” (Can-Fite Biopharma Ltd., priority 2009, dated 2015) can be followed below.

The test system of this experiment is moderate-to-severe chronic plaque psoriasis. Nature of the experiment: Phase 2, multi-center, randomized, double-blind, placebo-controlled clinical study in psoriasis patients (PASI assessment). The settings on record: 12 weeks. The experiment is classed as in vivo, human. As to the method:
A Phase 2, multi-center, randomized, double-blind, placebo-controlled clinical study was conducted in adult males and females, with ages of 18 to 70 years, with a diagnosis of moderate-to-severe chronic plaque psoriasis.
Eligible patients were randomly assigned to receive either placebo or a clinical grade […][N^6-(3-iodobenzyl)-adenin-9-yl]-N-methyl-β-D-ribofuronamide, IB-MECA (code-named by the study sponsor, Can-Fite Biopharma, the Assignee of this application, as “CF101”) at doses of 1 mg, 2 mg and 4 mg, taken orally twice daily (namely, total daily doses of 2 mg, 4 mg and 8 mg, respectively). IB-MECA was formulated in a tablet formulation as detailed in Table 1 below. Patients were instructed to take the formulation on an empty stomach. The study duration was 12 weeks.
The study was carried out in cohorts:
Cohort 1: 1 mg IB-MECA or placebo.
Cohort 2: 2 mg IB-MECA or placebo.
Cohort 3: 4 mg IB-MECA or placebo.
Within each cohort, patients were randomly assigned to either IB-MECA or placebo in a 3:1 ratio.
Disease was assessed using the Psoriasis Area and Severity Index (PASI).
Sixty two (62) patients were evaluated that belonged ton the following treatment groups (administration twice a day): […]

“Also recorded” adds a separate entry of the source.

In the case of `CNC(=O)[C@H]1O[C@@H](n2cnc3c(NCc4cccc(I)c4)ncnc32)[C@H](O)[C@@H]1O` [IB-MECA, 1-deoxy-1-[N^6-(3-iodobenzyl)-adenin-9-yl]-N-methyl-β-D-ribofuronamide], where the note is “2 mg IB-MECA orally twice daily (total 4 mg/day) versus placebo, patients with moderate-to-severe chronic plaque psoriasis, FIG. 1”, the “change in the Psoriasis Area and Severity Index (PASI) score from baseline over the study period” value is recorded as “continuous improvement in the patients' condition throughout the course of the study; also recorded: marked effect”. Moreover, for the setting “2 mg twice daily (total 4 mg/day) compared with 1 mg and 4 mg twice daily (2 mg/day and 8 mg/day), oral, FIG. 2”, the “difference between three doses of IB-MECA in the change in the PASI score from baseline over the study period” value is “considerably greater response over the two other tested dose groups; also recorded: significantly more effective in treatment of the psoriatic plaques than treatment of psoriasis at daily doses of 2 mg or 8 mg; also recorded: superior to a lower daily dose of 2 mg or a higher dose of 8 mg”.
